Data as given in ChEMBL document CHEMBL1201862, “PubChem BioAssay data set” (2004).
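Protocol summary: plate cells (96-well), add compound at 5 concentrations, incubate 48 h, interpolate endpoints linearly. Here, GI50 denotes the concentration required for 50% inhibition of growth.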 Calls of active or inactive are those of the source. Cut-off read from the data, not from the text of the source: active = GI50 up to about 1.1 µM and inactive = higher.

Columns and labels:
Experiment in all cases: inhibition of tumour cell growth, NCI panel, 48 h
UACC-257 = tested on: UACC-257
OVCAR-8 = tested on: OVCAR-8
COLO 205 = tested on: COLO 205
MOLT-4 = tested on: MOLT-4
SK-OV-3 = tested on: SK-OV-3
RPMI-8226 = tested on: RPMI-8226
CAKI-1 = tested on: CAKI-1
SR = tested on: SR
786-0 = tested on: 786-0
U-251 = tested on: U-251
NCI/ADR-RES = tested on: NCI/ADR-RES
SN12C = tested on: SN12C
HCT-15 = tested on: HCT-15
SK-MEL-28 = tested on: SK-MEL-28
NCI-H23 = tested on: NCI-H23
SF-268 = tested on: SF-268
SK-MEL-5 = tested on: SK-MEL-5
SNB-19 = tested on: SNB-19
CCRF-CEM = tested on: CCRF-CEM
HCC 2998 = tested on: HCC 2998

Compound | GI50 (UACC-257) | GI50 (OVCAR-8) | GI50 (COLO 205) | GI50 (MOLT-4) | GI50 (SK-OV-3) | GI50 (RPMI-8226) | GI50 (CAKI-1) | GI50 (SR) | GI50 (786-0) | GI50 (U-251) | GI50 (NCI/ADR-RES) | GI50 (SN12C) | GI50 (HCT-15) | GI50 (SK-MEL-28) | GI50 (NCI-H23) | GI50 (SF-268) | GI50 (SK-MEL-5) | GI50 (SNB-19) | GI50 (CCRF-CEM) | GI50 (HCC 2998)
O=[N+]([O-])c1ccc(C[S+]([O-])Cc2ccccc2)cc1 (stereo not given) | > 100 µM (inactive) | > 100 µM (inactive) | > 100 µM (inactive) | > 100 µM (inactive) | > 100 µM (inactive) | > 100 µM (inactive) | > 100 µM (inactive) | > 100 µM (inactive) | > 100 µM (inactive) | > 100 µM (inactive) | > 100 µM (inactive) | > 100 µM (inactive) | > 100 µM | > 100 µM (inactive) | > 100 µM (inactive) | > 100 µM (inactive) | > 100 µM (inactive) | > 100 µM (inactive) | > 100 µM (inactive) | 
CC(=O)Nc1nc(O)c2nc(C=O)cnc2n1 | > 100 µM (inactive) | > 100 µM (inactive) | > 100 µM (inactive) | > 100 µM (inactive) | > 100 µM (inactive) | > 100 µM (inactive) | > 100 µM (inactive) | > 100 µM (inactive) | > 100 µM (inactive) | > 100 µM (inactive) | > 100 µM (inactive) | > 100 µM (inactive) | > 100 µM | > 100 µM (inactive) | > 100 µM (inactive) | > 100 µM (inactive) | > 100 µM (inactive) | > 100 µM (inactive) |  | 
CCOC(=O)/C(C(=O)c1ccc([N+](=O)[O-])cc1)=C(\NS(=O)(=O)c1cc(C)c(Cl)cc1[S-])[n+]1ccc(N(C)C)cc1 | 6.47 µM (inactive) | 38.9 µM (inactive) | 29.9 µM (inactive) | 32.2 µM (inactive) | 25.8 µM (inactive) | 28.1 µM (inactive) | 35.1 µM (inactive) | 31.6 µM (inactive) | 30.3 µM (inactive) | 41.6 µM (inactive) | 43.1 µM (inactive) | 61.7 µM (inactive) | 34 µM | 28.3 µM (inactive) |  | 37.1 µM (inactive) | 42.8 µM (inactive) |  | 31.4 µM (inactive) | 
O=c1[nH]nc(-c2ccccc2)n1/N=C/c1c[nH]c2ccccc12 | > 100 µM (inactive) | 32.7 µM (inactive) | > 100 µM (inactive) | > 100 µM (inactive) | > 100 µM (inactive) | > 100 µM (inactive) | > 100 µM (inactive) |  | 56.2 µM (inactive) | > 100 µM (inactive) | > 100 µM (inactive) | > 100 µM (inactive) | > 100 µM | > 100 µM (inactive) | > 100 µM (inactive) | 74.6 µM (inactive) | > 100 µM (inactive) | > 100 µM (inactive) | > 100 µM (inactive) | > 100 µM (inactive)
CCN(CC)C(=O)N1CN(c2ccccc2)C2(CCN(CCCSc3ccc(F)cc3)CC2)C1=O | 3.32 µM (inactive) | 15.1 µM (inactive) | 1.92 µM (inactive) | 3.25 µM (inactive) | 19 µM (inactive) | 5.81 µM (inactive) | 87.7 µM (inactive) | 3.8 µM (inactive) | 12.8 µM (inactive) | 11.9 µM (inactive) | 21.2 µM (inactive) | 9.18 µM (inactive) | 11 µM | 18.4 µM (inactive) | 7.83 µM (inactive) | 11.1 µM (inactive) | 3.66 µM (inactive) | 9.79 µM (inactive) | 4.2 µM (inactive) | 
Cc1cc(CCC(=O)NCCNc2c3ccccc3nc3ccccc23)cc(C)c1O[Si](C)(C)C(C)(C)C | 2.01 µM (inactive) | 1.47 µM (inactive) | 1.03 µM (active) | 0.414 µM (active) | 1.61 µM (inactive) | 0.331 µM (active) |  | 0.214 µM (active) | 0.39 µM (active) | 0.312 µM (active) | 1.81 µM (inactive) | 15.5 µM (inactive) | 0.282 µM | 1.92 µM (inactive) | 1.93 µM (inactive) |  |  | 1.85 µM (inactive) | 0.38 µM (active) | 
CC1C/C(=C\c2ccc(OC(=O)C(C)(C)C)cc2)C(=O)/C(=C/c2ccc(OC(=O)C(C)(C)C)cc2)C1 (stereo not given) | > 100 µM (inactive) | 36 µM (inactive) | > 100 µM (inactive) | 7.66 µM (inactive) | > 100 µM (inactive) |  | > 100 µM (inactive) | 22.3 µM (inactive) | 54.3 µM (inactive) | 31 µM (inactive) | > 100 µM (inactive) | 26.2 µM (inactive) | > 100 µM | > 100 µM (inactive) | 24 µM (inactive) | 87.7 µM (inactive) | 57.3 µM (inactive) | > 100 µM (inactive) | 2.34 µM (inactive) | > 100 µM (inactive)
O=C(/C=C1\N=C(c2ccccc2)N(c2nc3ccc(Sc4ccccc4)cc3[nH]2)C1=O)/C=C/c1ccccc1 | 30.8 µM (inactive) | 24.5 µM (inactive) | 16.5 µM (inactive) | 33.3 µM (inactive) | 40.9 µM (inactive) | 22.6 µM (inactive) | 31.3 µM (inactive) |  | 33.3 µM (inactive) | 27.7 µM (inactive) | 24.4 µM (inactive) | 40 µM (inactive) | 33.1 µM | 46.5 µM (inactive) | 31.6 µM (inactive) | 31.4 µM (inactive) | 21.5 µM (inactive) | 49 µM (inactive) | 31.6 µM (inactive) | 17.4 µM (inactive)
CCOC(=O)C(C(=O)OCC)C(=O)c1ccccc1C(=O)c1ccccc1 | > 100 µM (inactive) |  | > 100 µM (inactive) | 23.4 µM (inactive) | > 100 µM (inactive) |  | > 100 µM (inactive) | 18.1 µM (inactive) | > 100 µM (inactive) | > 100 µM (inactive) | > 100 µM (inactive) | > 100 µM (inactive) | > 100 µM |  | > 100 µM (inactive) | > 100 µM (inactive) | 97.1 µM (inactive) | > 100 µM (inactive) | 96.2 µM (inactive) | > 100 µM (inactive)
Cc1ccc2nc(-c3ccc(-n4c(C)nc(=O)c(-c5ccc(F)cc5)c4C)cc3)sc2c1 | 16.1 µM (inactive) | 17.5 µM (inactive) | 4.97 µM (inactive) | 7 µM (inactive) | 15.1 µM (inactive) | 4.06 µM (inactive) | 17.8 µM (inactive) | 6.12 µM (inactive) | 13.6 µM (inactive) | 15.5 µM (inactive) | 15 µM (inactive) | 15 µM (inactive) | 12.4 µM | 20.8 µM (inactive) | 16.3 µM (inactive) | 20.3 µM (inactive) | 10.8 µM (inactive) | 14.8 µM (inactive) | 13 µM (inactive) | 
CC(=S)NC1C(Oc2ccc3c(C)cc(=O)oc3c2)OC(CO)C(O)C1O (stereo not given) | > 100 µM (inactive) | > 100 µM (inactive) |  | > 100 µM (inactive) | > 100 µM (inactive) | > 100 µM (inactive) | > 100 µM (inactive) | > 100 µM (inactive) | > 10 µM (inactive) | > 100 µM (inactive) | > 100 µM (inactive) | > 100 µM (inactive) | > 100 µM | > 100 µM (inactive) |  |  | > 100 µM (inactive) | > 100 µM (inactive) | > 100 µM (inactive) | 
NC(=O)c1ccc(/N=N/O)nc1 | > 100 µM (inactive) | > 100 µM (inactive) | > 100 µM (inactive) | > 100 µM (inactive) | > 100 µM (inactive) |  | > 100 µM (inactive) | > 100 µM (inactive) | > 100 µM (inactive) | > 100 µM (inactive) | > 100 µM (inactive) | > 100 µM (inactive) | > 100 µM | > 100 µM (inactive) | > 100 µM (inactive) | > 100 µM (inactive) | > 100 µM (inactive) | > 100 µM (inactive) | > 100 µM (inactive) | > 100 µM (inactive)
C[C@@H]1[C@H](C)N1CC(O)Cn1ccnc1[N+](=O)[O-] (stereo not given in full) | > 100 µM (inactive) | > 100 µM (inactive) | > 100 µM (inactive) | > 100 µM (inactive) | > 100 µM (inactive) |  | > 100 µM (inactive) | > 100 µM (inactive) | > 100 µM (inactive) | > 100 µM (inactive) | > 100 µM (inactive) | > 100 µM (inactive) | > 100 µM | > 100 µM (inactive) | > 100 µM (inactive) | > 100 µM (inactive) | > 100 µM (inactive) | > 100 µM (inactive) | > 100 µM (inactive) | > 100 µM (inactive)
COc1ccc(-c2oc3c(CC(=O)O)cccc3c(=O)c2OC)cc1 | > 100 µM (inactive) | > 100 µM (inactive) | > 100 µM (inactive) | > 100 µM (inactive) | > 100 µM (inactive) |  | 21.6 µM (inactive) | > 100 µM (inactive) | > 100 µM (inactive) | > 100 µM (inactive) | > 100 µM (inactive) | > 100 µM (inactive) |  |  | > 100 µM (inactive) | > 100 µM (inactive) | > 100 µM (inactive) |  | > 100 µM (inactive) | > 100 µM (inactive)
Nc1ccn([C@@H]2C=C(CO)[C@@H](O)[C@H]2O)c(=O)n1 |  | 0.0817 µM (active) | 0.198 µM (active) | 0.0501 µM (active) | 0.248 µM (active) |  | 0.101 µM (active) | 0.00946 µM (active) | 0.103 µM (active) | 0.321 µM (active) | 0.092 µM (active) | 0.0546 µM (active) | 0.0916 µM | 0.298 µM (active) | 0.169 µM (active) | 0.269 µM (active) | 1.06 µM (active) | 0.244 µM (active) | 0.0617 µM (active) | 1.29 µM (inactive)
